Source: ChEMBL document CHEMBL1201862, “PubChem BioAssay data set” (2004)
The source made the active and inactive calls.

Legend:
[1] = target: T1, Beta-lactamase (Pseudomonas aeruginosa, UniProt Q79MP6); assay: […] counterscreen for selective VIM-2 inhibitors: dose response biochemical high throughput screening assay to identify inhibitors of IMP-1 metallo-beta-lactamase.
[2] = target: Beta-lactamase (Salmonella choleraesuis (strain SC-B67), UniProt Q5J463); assay: Epi-absorbance-based counterscreen for selective VIM-2 inhibitors: dose response biochemical high throughput screening assay to identify inhibitors of TEM-1 serine-beta-lactamase.
[3] = target: T1, Beta-lactamase; assay: inhibition of IMP-1 beta-lactamase activity – biochemical, epi-absorbance, selectivity assay for VIM-2 inhibitor project, dose response (AID 1920)
[4] = target: T2, Sentrin-specific protease 8 (Homo sapiens, UniProt Q96LD8); type: functional
T2 sequence (Q96LD8 whole entry): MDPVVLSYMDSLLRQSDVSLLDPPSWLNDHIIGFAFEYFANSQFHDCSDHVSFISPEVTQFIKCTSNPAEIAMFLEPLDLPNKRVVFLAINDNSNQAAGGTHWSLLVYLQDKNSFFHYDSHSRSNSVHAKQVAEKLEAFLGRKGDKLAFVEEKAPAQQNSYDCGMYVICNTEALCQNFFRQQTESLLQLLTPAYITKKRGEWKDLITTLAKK

[5] = target: T2, Sentrin-specific protease 8; type: functional; remark: listed apart in the source
[6] = target: T3, Histone-lysine N-methyltransferase NSD2 (Homo sapiens, UniProt O96028); type: biochemical
T3 sequence (O96028 whole entry): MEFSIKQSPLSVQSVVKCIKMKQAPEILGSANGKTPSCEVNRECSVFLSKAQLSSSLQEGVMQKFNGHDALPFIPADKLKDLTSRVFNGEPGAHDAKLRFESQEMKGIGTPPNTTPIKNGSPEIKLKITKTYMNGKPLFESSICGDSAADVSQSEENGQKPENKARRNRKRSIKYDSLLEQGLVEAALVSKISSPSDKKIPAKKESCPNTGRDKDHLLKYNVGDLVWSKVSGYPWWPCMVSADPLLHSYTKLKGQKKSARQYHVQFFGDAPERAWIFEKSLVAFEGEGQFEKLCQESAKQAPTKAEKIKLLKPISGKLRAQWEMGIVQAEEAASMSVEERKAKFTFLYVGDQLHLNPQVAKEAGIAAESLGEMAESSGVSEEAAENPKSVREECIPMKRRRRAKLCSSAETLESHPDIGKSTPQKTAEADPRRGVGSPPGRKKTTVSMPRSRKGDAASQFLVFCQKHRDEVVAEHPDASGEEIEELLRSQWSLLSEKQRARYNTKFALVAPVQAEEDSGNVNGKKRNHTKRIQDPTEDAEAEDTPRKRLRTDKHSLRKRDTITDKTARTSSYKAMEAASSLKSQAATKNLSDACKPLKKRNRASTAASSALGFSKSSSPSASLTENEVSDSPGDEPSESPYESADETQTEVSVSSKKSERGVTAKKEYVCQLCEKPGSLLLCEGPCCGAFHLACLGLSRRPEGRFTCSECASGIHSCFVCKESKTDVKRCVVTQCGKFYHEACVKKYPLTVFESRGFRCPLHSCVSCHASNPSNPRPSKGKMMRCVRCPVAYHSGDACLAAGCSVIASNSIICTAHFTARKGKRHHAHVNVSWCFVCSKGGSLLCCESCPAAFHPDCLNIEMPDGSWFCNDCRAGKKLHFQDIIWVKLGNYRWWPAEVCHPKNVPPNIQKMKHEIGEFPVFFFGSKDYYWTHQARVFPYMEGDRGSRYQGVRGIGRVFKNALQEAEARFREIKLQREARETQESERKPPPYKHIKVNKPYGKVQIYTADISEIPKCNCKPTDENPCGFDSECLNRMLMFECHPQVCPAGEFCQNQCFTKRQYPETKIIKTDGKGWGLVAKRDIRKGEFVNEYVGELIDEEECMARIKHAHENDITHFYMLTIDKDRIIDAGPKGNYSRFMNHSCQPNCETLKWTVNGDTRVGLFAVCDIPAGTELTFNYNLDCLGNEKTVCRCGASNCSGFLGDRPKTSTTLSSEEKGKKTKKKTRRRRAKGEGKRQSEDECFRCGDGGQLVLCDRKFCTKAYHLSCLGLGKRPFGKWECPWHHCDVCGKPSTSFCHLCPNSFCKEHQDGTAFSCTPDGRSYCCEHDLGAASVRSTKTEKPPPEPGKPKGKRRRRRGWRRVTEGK

[7] = cells; type: functional, cell-based
[8] = cells; type: functional, cell-based; remark: listed apart in the source
[9] = luciferase reporter signal suppression in cells – H4 neuroglioma cells, luminescence, dose response (AID 1990); type: functional, cell-based
[10] = blockade of melanocortin 4 receptor signaling – cell-based, plate reader, cherry pick, counter-screen for LGR2 antagonist project, dose response (AID 743444); type: functional;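 further: transfected HEK 293 cells stimulated with alpha-MSH peptide; potency of inhibitors of the alpha-MSH evoked signal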
[11] = Luminescence Cell-Based Dose Response HTS to Identify Inhibitors of 5'UTR Stem-Loop Driven Prion Protein mRNA Translation in H4 Neuroglioblastoma Cells. [Related pubchem assays: 1827 (Project Summary), 1813 (Primary HTS)]; type: functional
[12] = system: HEK293; assay: EBV LMP1 TES2 canonical NF-kB signalling blockers – cell-based, HEK293, luciferase, cherry-pick, dose response (AID 588343); type: functional; conditions: Homo sapiens
[13] = cells; type: functional, cell-based; remark: listed apart in the source
[14] = target: T4, Nuclear receptor subfamily 0 group B member 1 (Homo sapiens, UniProt P51843); type: functional, cell-based;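 further: HEK293T cells transfected with SF-1 and DAX-1 plus StAR promoter luciferase reporter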
T4 sequence (P51843 whole entry): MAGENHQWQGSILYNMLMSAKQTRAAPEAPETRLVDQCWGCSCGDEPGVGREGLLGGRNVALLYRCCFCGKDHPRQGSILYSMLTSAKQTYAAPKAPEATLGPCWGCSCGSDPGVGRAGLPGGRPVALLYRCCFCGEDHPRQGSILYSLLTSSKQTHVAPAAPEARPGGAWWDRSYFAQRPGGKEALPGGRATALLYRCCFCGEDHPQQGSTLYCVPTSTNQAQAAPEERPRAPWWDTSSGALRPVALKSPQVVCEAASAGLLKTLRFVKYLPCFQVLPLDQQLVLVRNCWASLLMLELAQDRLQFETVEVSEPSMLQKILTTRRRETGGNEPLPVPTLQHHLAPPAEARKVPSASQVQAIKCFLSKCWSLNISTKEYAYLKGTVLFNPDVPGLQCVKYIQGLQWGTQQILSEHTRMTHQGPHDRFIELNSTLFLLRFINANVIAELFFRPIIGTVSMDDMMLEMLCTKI

[15] = blockers of bursicon-stimulated LGR2 cAMP reporter – cell-based, HEK293, CRE-luciferase reporter, cherry pick, set 2, dose response (AID 743343); type: functional;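 further: transfected cells were stimulated with diluted bursicon conditioned medium after compound addition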
[16] = alpha-synuclein stem-loop luciferase translation blockers – H4 neuroglioma cells, luminescence, confirmation (AID 1988); type: functional, cell-based
[17] = target: Mu-type opioid receptor (Homo sapiens, UniProt P35372); type: functional, cell-based;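 further: U2OS cells with beta-arrestin recruitment to OPRM1 by beta-gal complementation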
[18] = target: 5-hydroxytryptamine receptor 2A (Mus musculus, UniProt P35363); type: functional, cell-based;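 further: CHO-K1 cells with tagged receptor and beta-arrestin; agonist potency measured as compound-induced activation of the receptor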
[19] = system: INS1; assay: INS-1E survival protection against cytokine death – cell-based, luminescence, retest, dose response (AID 449756); type: functional; conditions: Rattus norvegicus;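 further: cell death triggered by IL-1 beta plus TNF-alpha plus IFN-gamma mixture; protective hits raise ATP signal compared with cytokine alone wells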
[20] = intracellular Trypanosoma cruzi inhibitors in host cells – cell-based, plate reader, cherry-pick samples, set 3, dose response (AID 651818); type: functional;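 further: compounds incubated with infected cells for about four days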

T1 sequence (Q79MP6 whole entry): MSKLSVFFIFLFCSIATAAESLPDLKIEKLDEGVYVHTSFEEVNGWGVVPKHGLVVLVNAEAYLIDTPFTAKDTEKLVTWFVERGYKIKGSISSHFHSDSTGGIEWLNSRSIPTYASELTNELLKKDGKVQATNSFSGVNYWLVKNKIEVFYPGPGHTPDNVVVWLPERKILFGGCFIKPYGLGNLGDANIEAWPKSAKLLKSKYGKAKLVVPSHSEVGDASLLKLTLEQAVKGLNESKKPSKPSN
5-hydroxytryptamine receptor 2A, sequence (P35363 whole entry): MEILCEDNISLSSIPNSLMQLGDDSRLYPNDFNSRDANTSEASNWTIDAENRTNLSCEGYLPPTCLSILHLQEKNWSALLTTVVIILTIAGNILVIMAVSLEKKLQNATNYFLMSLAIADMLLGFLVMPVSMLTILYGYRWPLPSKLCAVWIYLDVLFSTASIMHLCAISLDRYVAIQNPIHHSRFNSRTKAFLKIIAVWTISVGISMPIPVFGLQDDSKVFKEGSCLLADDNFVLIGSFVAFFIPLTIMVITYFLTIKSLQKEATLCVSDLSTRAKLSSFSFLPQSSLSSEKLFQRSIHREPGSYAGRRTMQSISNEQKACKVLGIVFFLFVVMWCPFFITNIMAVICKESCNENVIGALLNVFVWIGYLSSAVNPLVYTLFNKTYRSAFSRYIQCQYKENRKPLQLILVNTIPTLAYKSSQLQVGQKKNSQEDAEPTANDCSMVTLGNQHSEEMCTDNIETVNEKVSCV
Mu-type opioid receptor, sequence (P35372 whole entry): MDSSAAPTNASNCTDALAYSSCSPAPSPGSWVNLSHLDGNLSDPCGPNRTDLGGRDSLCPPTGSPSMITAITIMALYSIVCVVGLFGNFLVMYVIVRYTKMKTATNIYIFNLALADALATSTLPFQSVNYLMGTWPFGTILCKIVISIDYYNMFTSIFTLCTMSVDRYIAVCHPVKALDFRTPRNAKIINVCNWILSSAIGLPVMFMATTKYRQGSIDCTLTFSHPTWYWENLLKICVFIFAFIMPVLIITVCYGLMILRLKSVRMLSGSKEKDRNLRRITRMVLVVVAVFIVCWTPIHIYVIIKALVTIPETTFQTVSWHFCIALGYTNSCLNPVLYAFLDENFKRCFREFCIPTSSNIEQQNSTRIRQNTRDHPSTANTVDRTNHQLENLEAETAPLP
Beta-lactamase (Salmonella choleraesuis (strain SC-B67), UniProt Q5J463), sequence (Q5J463 whole entry): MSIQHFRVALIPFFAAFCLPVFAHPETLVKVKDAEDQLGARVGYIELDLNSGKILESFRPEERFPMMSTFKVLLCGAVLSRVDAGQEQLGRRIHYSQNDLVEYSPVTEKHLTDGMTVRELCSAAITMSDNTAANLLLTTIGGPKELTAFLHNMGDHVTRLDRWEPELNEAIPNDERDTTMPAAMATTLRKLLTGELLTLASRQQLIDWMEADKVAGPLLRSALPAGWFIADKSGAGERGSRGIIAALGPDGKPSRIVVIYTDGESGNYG

## O=C(CSc1nnc(NC(=O)c2cc(Br)ccc2Cl)s1)NCC1CCCO1 (stereo not drawn)
[1]
  IC50: > 59.6 µM (inactive)
[2]
  IC50: > 59.6 µM (inactive)
[3]
  IC50: > 59.6 µM (inactive)

## Cc1n[nH]c(O)c1C(c1ccc(-c2ccc(Cl)cc2)o1)c1c(C)n[nH]c1O
[4]
  IC50: 12.9 µM (active)
[5]
  IC50: 36.3 µM (active)
[6]
  AC50: 8.22 µM (active)

## CCCN1CN(CCc2ccccc2)CN=C1S
[7]
  EC50: > 29.9 µM (inactive)
[8]
  IC50: > 29.9 µM (inactive)

## COC(=O)c1ccc2nc(-c3cccc(N)c3)cn2c1
[9]
  EC50: > 60 µM (not active)
[10]
  AC50: 2.62 µM (active)
[11]
  EC50: > 60 µM (not active)
[12]
  AC50: 2.21 µM (active)
[13]
  IC50: > 67.5 µM (inactive)
[14]
  IC50: > 0.834 µM (active)
[15]
  AC50: 3.22 µM (active)
[16]
  EC50: 6.89 µM (active)

## CCCN1CCO[C@@H]2c3cc(O)ccc3OC[C@H]21
[17]
  EC50: 92.5 µM (inactive)
[18]
  EC50: 0.0216 µM (active)

## c1cnc(N2CCN(Cc3c[nH]c4ccccc34)CC2)nc1
[17]
  EC50: 92.5 µM (inactive)
[18]
  EC50: 0.424 µM (active)
[19]
  AC50: 4.57 µM (active)

## C[C@@H]1CN([C@H](C)CO)C(=O)Cc2cc(NS(=O)(=O)c3ccccc3)ccc2O[C@H]1CN(C)Cc1ccc(Cl)c(Cl)c1
[20]
  AC50: 3.13 µM (active)

## C[C@@H]1CN([C@@H](C)CO)C(=O)c2cccc(NC(=O)Nc3ccc4c(c3)OCO4)c2O[C@H]1CN(C)Cc1ccc(Oc2ccccc2)cc1
[20]
  AC50: 1.92 µM (active)
